This is an account of results in patent US9732060B2, “Aminotriazine derivative and pharmaceutical composition comprising the same” (Shionogi & Co., Ltd., priority 2013, dated 2017).

Read-outs that look alike come from different tables or passages of the source. Where only a bound is given, the exact number is not on record here.

A short description of data set [1]: Pharmacokinetic test (BA, CLtot). Type of data set: in vivo. Conditions: rat, plasma, SD rats. How it is done:
• (1) Animals: SD rats were used • (2) Breeding conditions: SD rats were allowed to freely take solid food and sterilized tap water. • (3) Dose and grouping: orally or intravenously administered at a predetermined dose; grouping was as follows (Dose depends on the compound)
Oral administration: 1 mg/kg (n=2)
The total body clearance (CLtot) was calculated by dividing the dose by the AUC of the intravenous administration group.

For data set [2], the target named is Rat P2X3 receptor (Rattus norvegicus (Rat), UniProt P49654). In words: Evaluation of rat P2X3 receptor inhibitory activity in the presence of rat serum albumin (RSA). Conditions: read-out: ratP2X3 + RSA IC50. Type of data set: cell-based. The protocol:
Rat P2X3 receptor gene (GenBank accession number NM_031075) was expressed in C6BU-1 cell. The C6BU-1 cells were seeded in a 96-well micro titer plate at a concentration of 2500 cells/well and cultured in the medium (7.0% fetal bovine serum, 7.0% horse serum, and 1% antibiotic and antifungal in DMEM) for one day at 37° C. under 5% carbon dioxide atmosphere. The plasmid was transfected into the cells using transfection reagent FuGENE6 (Promega). The transfected cells were cultured in the medium for one day at 37° C. under 5% carbon dioxide atmosphere. The medium was replaced with 4 μM Fluo-4-AM solution (pH 7.5) containing 20 mM HEPES, 137 mM NaCl, 5.27 mM KCl, 0.9 mM MgCl2, 1.26 mM CaCl2, 5.6 mM D-glucose, 2.5 mM probenecid, 10% RSA, and 0.08% Pluronic F-127, and incubated at 37° C. under 5% dioxide carbon atmosphere for one hour. The plate was washed with washing buffer (20 mM HEPES, 137 mM NaCl, 5.27 mM KCl, 0.9 mM MgCl2, 1.26 mM CaCl2, 5.6 mM D-glucose, 2.5 mM probenecid, pH 7.5), and each well was added with 40 μL of this buffer. The plate was placed in High-Throughput Screening System FDSS 3000 (Hamamatsu Photonics K.K.). Measurement of fluorescence intensity by FDSS 3000 was started, and 40 μL of DMSO solutions containing 1% RSA (final concentrations) and different concentrations of the test compound as prepared by dilution with dilution buffer (20 mM HEPES, 137 mM NaCl, 5.27 mM KCl, 0.9 mM MgCl2, 1.26 mM CaCl2, 5.6 mM D-glucose, 2.5 mM probenecid, 0.1% Pluronic F-127, pH 7.5) were dispensed to each well through the built-in automatic dispenser. Five minutes after, 50 nM ATP solution (50 μL) prepared by dilution with the dilution buffer was dispensed through the built-in automatic dispenser, and the measurement of fluorescence intensity was continued for 4 min. For each well, the specific maximum fluorescence intensity was calculated as the ratio of the maximum fluorescence intensity after addition of the ATP solution to the fluorescence intensity at the starting of the measurement. […] FDSS software (Hamamatsu Photonics K.K.) was used for calculation of the specific maximum fluorescence intensity. IC50 was calculated using Microsoft Excel (Microsoft Corporation) and XLfit (idbs Ltd.).

Data set [3] is described as follows: Solubility test (1% DMSO, artificial intestinal juice pH 6.8). It is filed as physicochemical. The conditions noted are these: artificial intestinal juice pH 6.8 with 1% DMSO, 25 °C, fassgf or other biorelevant, kinetic from dmso stock, artificial intestinal juice pH 6.8, 25 degrees Celsius, read-out: Solubulity. The protocol: The solubility of a compound was determined under a condition in which 1% DMSO was added. 10 mmol/L compound solution was prepared using DMSO, and then 2 μL of the compound solution was added to 198 μL of artificial intestinal juice in pH 6.8 (to 250 mL of 0.2 mol/L potassium dihydrogen phosphate reagent solution was added 118 mL of 0.2 mol/L NaOH reagent solution and water to provide a final volume of 1000 mL). After standing at 25 degrees Celsius for 18 hours, the mixed solution was filtrated with suction. The filtrate was diluted twice with methanol/water (1/1), and then a concentration in the filtration was measured with HPLC or LC/MS/MS by the absolute calibration method.

Data set [4] deals with CYP3A4 (Homo sapiens (Human), UniProt P08684). In words: CYP inhibition test, CYP3A4. It is filed as in vitro ADME. The conditions noted are these: pooled human hepatic microsome; terfenedine hydroxylation. The protocol: (§1) Using commercially available pooled human hepatic microsome, and employing, as markers, 7-ethoxyresorufin-O-deethylation (CYP1A2), tolbutamide methyl-hydroxylation (CYP2C9), mephenytoin 4′-hydroxylation (CYP2C19), dextromethorphan O-demethylation (CYP2D6), and terfenedine hydroxylation as typical substrate metabolism reactions of human main five CYP enzyme forms (CYP1A2, 2C9, 2C19, 2D6, 3A4), an inhibitory degree of each metabolite production amount by a test compound was assessed.
Sequence of CYP3A4 (P08684 whole entry): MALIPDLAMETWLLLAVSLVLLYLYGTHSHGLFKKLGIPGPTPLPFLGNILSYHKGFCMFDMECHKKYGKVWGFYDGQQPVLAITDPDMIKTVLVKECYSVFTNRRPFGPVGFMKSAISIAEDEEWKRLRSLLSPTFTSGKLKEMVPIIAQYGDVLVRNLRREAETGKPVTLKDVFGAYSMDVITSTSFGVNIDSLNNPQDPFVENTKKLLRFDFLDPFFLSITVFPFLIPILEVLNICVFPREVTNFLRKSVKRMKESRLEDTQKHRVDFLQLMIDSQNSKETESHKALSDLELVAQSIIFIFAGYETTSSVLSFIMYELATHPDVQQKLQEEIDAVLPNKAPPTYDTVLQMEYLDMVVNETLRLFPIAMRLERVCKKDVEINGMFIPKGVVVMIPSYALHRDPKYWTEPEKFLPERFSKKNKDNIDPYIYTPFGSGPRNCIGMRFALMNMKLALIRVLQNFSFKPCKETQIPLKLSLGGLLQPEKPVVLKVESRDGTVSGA
(§2) The reaction conditions were as follows: substrate, 0.5 μmol/L ethoxyresorufin (CYP1A2), 100 μmol/L tolbutamide (CYP2C9), 50 μmol/L S-mephenitoin (CYP2C19), 5 μmol/L dextromethorphan (CYP2D6), 1 μmol/L terfenedine (CYP3A4); reaction time, 15 minutes; reaction temperature, 37° C. enzyme, pooled human hepatic microsome 0.2 mg protein/mL; test, drug concentration, 1.0, 5.0, 10, 20 μmol/L (four points).
(§3) Each five kinds of substrates, human hepatic microsome, or a test drug in 50 mmol/L Hepes buffer as a reaction solution was added to a […] at the composition as described above, NADPH, as a cofactor was added to initiate metabolism reactions as markers and, after the incubation at 37° C. for 15 minutes, a methanol/acetonitrile=1/1 (v/v) solution was added to stop the reaction. After the centrifugation at 3000 rpm for 15 minutes, resorufin (CYP1A2 metabolite) in the supernatant was quantified by a fluorescent multilabel counter and tributamide hydroxide (CYP2CP metabolite), mephenytoin 4′hydroxide (CYP2C19 metabolite), […] (CYP2D6 metabolite), and terfenadine alcohol (CYP3A4 metabolite) were quantified by LC/MS/MS.
(§4) Addition of only DMSO being a solvent dissolving a drug to a reaction system was adopted as a control (100%), remaining activity (%) was calculated at each concentration of a test drug added as the solution and IC50 was calculated by reverse presumption by a logistic model using a concentration and an inhibition rate.

Data set [5] has as its target CYP2C19 (Homo sapiens (Human), UniProt P33261). As to the kind of experiment: CYP inhibition test, CYP2C19. Conditions: pooled human hepatic microsome; mephenytoin 4′-hydroxylation. It is filed as in vitro ADME. The protocol:
as §1, §2, §3, §4

The target of data set [6] is CYP2D6 (Homo sapiens (Human), UniProt P10635). In words: CYP inhibition test, CYP2D6. The conditions noted are these: pooled human hepatic microsome; dextromethorphan O-demethylation. Type of data set: in vitro ADME. The protocol:
as §1, §2, §3, §4

Data set [7] addresses CYP2C9 (Homo sapiens (Human), UniProt P11712). As to the kind of experiment: CYP inhibition test, CYP2C9. Type of data set: in vitro ADME. The conditions noted are these: pooled human hepatic microsome; tolbutamide methyl-hydroxylation. The protocol: as §1, §2, §3, §4
Data set [8] deals with CYP1A2 (Homo sapiens (Human), UniProt P05177). In words: CYP inhibition test, CYP1A2. Type of data set: in vitro ADME. Conditions: pooled human hepatic microsome; 7-ethoxyresorufin-O-deethylation. The protocol:
as §1, §2, §3, §4

[9] abbreviates: intravenous administration 0.5 mg/kg.
Where [10] appears, read: intravenous administration 0.5 mg/kg, read-out: AUC (iv).
[11] abbreviates: oral administration 1 mg/kg, read-out: AUC (po).

Sequence of Rat P2X3 receptor (P49654 whole entry): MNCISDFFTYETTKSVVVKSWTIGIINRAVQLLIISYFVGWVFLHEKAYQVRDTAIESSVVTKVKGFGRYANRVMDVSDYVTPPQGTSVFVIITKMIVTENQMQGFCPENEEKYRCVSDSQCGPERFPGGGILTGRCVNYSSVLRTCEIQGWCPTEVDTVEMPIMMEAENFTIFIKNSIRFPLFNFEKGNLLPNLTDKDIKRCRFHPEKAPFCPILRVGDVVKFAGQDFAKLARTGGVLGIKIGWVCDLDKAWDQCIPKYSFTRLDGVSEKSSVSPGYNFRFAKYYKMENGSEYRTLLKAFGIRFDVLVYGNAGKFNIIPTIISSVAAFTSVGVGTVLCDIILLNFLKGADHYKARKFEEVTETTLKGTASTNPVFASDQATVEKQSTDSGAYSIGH
Sequence of CYP2C19 (P33261 whole entry): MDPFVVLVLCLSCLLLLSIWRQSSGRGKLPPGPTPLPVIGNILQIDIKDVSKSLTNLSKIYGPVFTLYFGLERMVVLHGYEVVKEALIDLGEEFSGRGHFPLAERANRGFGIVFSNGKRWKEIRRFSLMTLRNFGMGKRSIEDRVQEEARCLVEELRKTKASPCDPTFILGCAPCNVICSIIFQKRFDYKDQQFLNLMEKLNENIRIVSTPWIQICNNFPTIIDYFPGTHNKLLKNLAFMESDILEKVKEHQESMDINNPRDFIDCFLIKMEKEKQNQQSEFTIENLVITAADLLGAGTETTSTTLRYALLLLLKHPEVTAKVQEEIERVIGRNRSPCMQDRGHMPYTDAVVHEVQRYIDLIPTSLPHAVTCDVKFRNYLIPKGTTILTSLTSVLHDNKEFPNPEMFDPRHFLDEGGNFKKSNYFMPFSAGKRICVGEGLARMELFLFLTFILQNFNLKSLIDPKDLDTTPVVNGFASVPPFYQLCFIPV
Sequence of CYP2C9 (P11712 whole entry): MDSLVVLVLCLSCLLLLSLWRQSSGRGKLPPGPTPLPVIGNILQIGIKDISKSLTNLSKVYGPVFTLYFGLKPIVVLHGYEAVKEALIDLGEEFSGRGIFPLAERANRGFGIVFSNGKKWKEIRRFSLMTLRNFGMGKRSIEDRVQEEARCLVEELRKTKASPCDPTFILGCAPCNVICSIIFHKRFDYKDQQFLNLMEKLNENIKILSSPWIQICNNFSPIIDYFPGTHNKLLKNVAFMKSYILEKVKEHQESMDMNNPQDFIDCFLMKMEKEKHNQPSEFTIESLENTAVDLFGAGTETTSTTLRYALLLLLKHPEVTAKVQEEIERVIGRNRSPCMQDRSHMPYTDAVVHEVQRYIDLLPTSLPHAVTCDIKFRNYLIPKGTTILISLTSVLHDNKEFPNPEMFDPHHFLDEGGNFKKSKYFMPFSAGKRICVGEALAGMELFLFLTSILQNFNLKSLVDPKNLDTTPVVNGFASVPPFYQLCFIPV
Sequence of CYP2D6 (P10635 whole entry): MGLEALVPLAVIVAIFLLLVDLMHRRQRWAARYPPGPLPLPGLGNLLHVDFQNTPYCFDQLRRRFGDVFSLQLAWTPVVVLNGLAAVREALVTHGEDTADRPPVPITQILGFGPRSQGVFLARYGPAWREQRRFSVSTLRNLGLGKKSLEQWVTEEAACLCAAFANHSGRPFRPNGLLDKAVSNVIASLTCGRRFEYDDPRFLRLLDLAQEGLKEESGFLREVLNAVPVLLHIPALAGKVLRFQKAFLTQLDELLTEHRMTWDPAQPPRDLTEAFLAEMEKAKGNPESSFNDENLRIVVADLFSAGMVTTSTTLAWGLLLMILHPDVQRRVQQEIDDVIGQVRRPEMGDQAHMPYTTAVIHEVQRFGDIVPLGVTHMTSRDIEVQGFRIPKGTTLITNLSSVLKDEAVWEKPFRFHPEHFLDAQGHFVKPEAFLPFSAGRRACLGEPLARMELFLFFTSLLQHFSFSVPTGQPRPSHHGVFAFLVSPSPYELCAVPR
Sequence of CYP1A2 (P05177 whole entry): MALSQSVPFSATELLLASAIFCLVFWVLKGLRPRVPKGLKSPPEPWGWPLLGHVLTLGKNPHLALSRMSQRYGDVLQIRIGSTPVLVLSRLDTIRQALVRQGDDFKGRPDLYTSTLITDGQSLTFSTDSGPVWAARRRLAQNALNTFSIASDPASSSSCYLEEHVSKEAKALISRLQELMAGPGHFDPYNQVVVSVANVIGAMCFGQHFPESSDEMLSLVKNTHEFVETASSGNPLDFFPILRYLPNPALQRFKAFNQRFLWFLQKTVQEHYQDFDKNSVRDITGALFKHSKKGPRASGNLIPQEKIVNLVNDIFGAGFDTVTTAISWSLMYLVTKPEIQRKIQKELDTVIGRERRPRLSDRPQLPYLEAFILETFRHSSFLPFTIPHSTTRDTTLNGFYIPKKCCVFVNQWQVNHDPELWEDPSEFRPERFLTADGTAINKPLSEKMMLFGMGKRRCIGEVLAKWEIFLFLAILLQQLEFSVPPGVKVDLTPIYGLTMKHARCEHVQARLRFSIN

Molecule `C[C@@H](Cn1c(=O)[nH]/c(=N\c2ccc(Oc3cccc(Cl)n3)cc2)n(Cc2ccc(Cl)cc2)c1=O)C(=O)O` [Compound I-014] displayed a clearance in data set [1] (setting [9]) of 4 mL/min/kg. Further, the AUC in data set [1] (setting [10]) was found to be 2300 ng·h/mL; in data set [1] (setting [11]) it was 4890 ng·h/mL.

On to `O=C(O)C1(Cn2c(=O)[nH]/c(=N\c3ccc(Oc4cccc(F)n4)cc3)n(Cc3ccc(Cl)cc3)c2=O)CC1` [Compound I-017], for which the clearance in data set [1] (setting [9]) was determined as 2.3 mL/min/kg. Besides, the AUC was determined as 3790 ng·h/mL in data set [1] (setting [10]) and 6110 ng·h/mL in data set [1] (setting [11]).

Turning to `C[C@@H](Cn1c(=O)[nH]/c(=N\c2ccc(Oc3ccc(OC(F)F)cn3)cc2)n(Cc2ccc(Cl)cc2)c1=O)C(=O)O` [Compound I-022], in data set [2], the IC50 was determined as 0.011 µM.

For `Cc1ccc(Cn2c(=O)n(C[C@H](C)C(=O)O)c(=O)[nH]/c2=N\c2ccc(Oc3ccc(C(F)(F)F)cn3)cc2)cc1` [Compound I-038], the solubility at 18 h in data set [3] is over 50 µM.

For the molecule `Cc1ccc(Cn2c(=O)n(C[C@H](C)C(=O)O)c(=O)[nH]/c2=N\c2ccc(Oc3cccc(C(F)(F)F)n3)cc2)cc1` [Compound I-039], the solubility at 18 h in data set [3] is over 50 µM.

On to `Cc1ccc(Cn2c(=O)n(CC(C)(C)C(=O)O)c(=O)[nH]/c2=N\c2ccc(Oc3ccc(F)cn3)cc2)cc1` [Compound I-041], for which the half-maximal inhibitory concentration (IC50) in data set [4], in data set [5], in data set [6], in data set [7] and in data set [8] was over 20 µM throughout. In data set [3], the solubility at 18 h is over 50 µM.

Turning to `Cc1ccc(Oc2ccc(/N=c3\[nH]c(=O)n(CC(C)(C)C(=O)O)c(=O)n3Cc3ccc(Cl)cc3)cc2)nc1` [Compound I-058], in data set [1] (setting [9]), the clearance came out at 5.8 mL/min/kg. In addition, the AUC in data set [1] (setting [10]) stood at 1510 ng·h/mL; in data set [1] (setting [11]), 2030 ng·h/mL.

Regarding `COc1ccnc(Oc2ccc(/N=c3\[nH]c(=O)n(C[C@H](C)C(=O)O)c(=O)n3Cc3ccc(Cl)cc3)cc2)c1` [Compound I-069], the IC50 in data set [4], in data set [5], in data set [6], in data set [7] and in data set [8] was over 20 µM throughout.

As to `Cc1ccc(Cn2c(=O)n(C[C@H](C)C(=O)O)c(=O)[nH]/c2=N\c2ccc(Oc3ccc(Cl)cn3)cc2)cc1` [Compound I-100], the IC50 in data set [2] was 0.009 µM.

In the case of `Cc1ccc(Cn2c(=O)n([C@@H](C)[C@@H](C)C(=O)O)c(=O)[nH]/c2=N\c2ccc(Oc3cccc(F)n3)cc2)cc1` [Compound I-106], the IC50 in data set [4], in data set [5], in data set [6], in data set [7] and in data set [8] was over 20 µM throughout.

Take `Cc1ccc(Cn2c(=O)n([C@@H](C)[C@@H](C)C(=O)O)c(=O)[nH]/c2=N\c2ccc(Oc3ccc(C)cn3)cc2)cc1` [Compound I-113]: the IC50 in data set [2] amounted to 0.01 µM.

On to `C[C@@H](Cn1c(=O)[nH]/c(=N\c2ccc(Oc3ccccn3)cc2)n(Cc2ccc(Cl)cc2)c1=O)C(=O)O` [Compound I-127], for which the clearance in data set [1] (setting [9]) turned out to be 3.8 mL/min/kg. Moreover, the values for the AUC in data set [1] (setting [10]) and in data set [1] (setting [11]) were 2330 ng·h/mL and 2460 ng·h/mL, respectively.

As for `COc1nccc(Oc2ccc(/N=c3\[nH]c(=O)n([C@@H](C)[C@@H](C)C(=O)O)c(=O)n3Cc3ccc(Cl)cc3)cc2)n1` [Compound R-010], the IC50 in data set [4], in data set [5], in data set [6], in data set [7] and in data set [8] was over 20 µM in each case.

As for `C[C@@H](Cn1c(=O)[nH]/c(=N\c2ccc(Oc3cnc(Cl)cn3)cc2)n(Cc2ccc(Cl)cc2)c1=O)C(=O)O` [Compound R-014], the IC50 in data set [4] was over 20 µM; in data set [5] it was over 20 µM; in data set [6], over 20 µM; in data set [7] it was over 20 µM; in data set [8] it was over 20 µM; in data set [2], 0.006 µM.

Consider `CC(C)(Cn1c(=O)[nH]/c(=N\c2ccc(Oc3cnc(Cl)cn3)cc2)n(Cc2ccc(Cl)cc2)c1=O)C(=O)O` [Compound R-027], for which the IC50 in data set [4], in data set [5], in data set [6], in data set [7] and in data set [8] was over 20 µM throughout.

With `C[C@@H](Cn1c(=O)[nH]/c(=N\c2ccc(Oc3cccnn3)c(F)c2)n(Cc2ccc(Cl)cc2)c1=O)C(=O)O` [Compound R-037], in data set [2], the IC50 stood at 0.008 µM.

As to `COc1cc(Oc2ccc(/N=c3\[nH]c(=O)n(C[C@H](C)C(=O)O)c(=O)n3Cc3ccc(Cl)cc3)cc2)cc(F)n1` [Compound R-058], the IC50 in data set [4], in data set [5], in data set [6], in data set [7] and in data set [8] was over 20 µM throughout.

Broadly, the clearance is a measure of how efficiently the substance is removed, as volume per time. For orientation: AUC means concentration integrated over time. As usually defined, the IC50 is the concentration at which inhibition is half-maximal.
